According to patent US20080269279A1, “Substituted furo[2,3-B] pyridine derivatives as cannabinoid-1 receptor modulators” (priority 2007, published 2008):

Legend:
[1] = tested on: human GABA α1β3β2 receptors; assay: GABAa, 3H-muscimol binding assay; settings: for % GABA Example: activity at 10 μM as percentage of activity of control compound P18 at 10 μM (increase of 3H-muscimol binding); for % GABA Parent: parent compound without R^4 heteroaryl, activity at 10 μM as percentage of activity of control compound P18 at 10 μM
Experimental: Membranes from recombinant Ltk cells expressing human GABA α1β3β2 receptors were suspended in an ice-cold solution of 100 mM KCl, 10 mM KH2PO4, adjusted to pH=7.4 with 1 M KOH. Tritiated muscimol (PerkinElmer, Wellesley, Mass.) at a concentration of 2 nM, and serial five-fold dilutions of test compounds at 10 μM, 2.0 μM, 400 nM, 80 nM, 16 nM, 3.2 nM, 0.64 nM and 0.13 nM were mixed in 96-well plates containing 200 μL of membrane suspension. Cold muscimol and compound P18 were used as negative and positive controls respectively. The assay mixture was incubated at 4° C. for 2 hours, then harvested on GF/C filter plates and washed with ice-cold 50 mM Tris-Ci buffer. The filter plates were dried and counted in a Wallac MicroBeta® Trilux detector (Model 1450-030; PerkinElmer, Wellesley, Mass.), and the data were downloaded and analyzed using Prism 3.0. The activity of compound P18 at 10 μM was used as reference for the test compounds, and it was expressed as increasing ^3H-muscimol binding by 100%, whereas cold muscimol at 2 μM antagonized ^3H-muscimol binding by 100%. The tested compound's activity at 10 μM was expressed as a percentage of compound P18's activity at 10 μM.
As a reference, the parent compound (the compound not substituted with a R^4 heteroaryl, such as pyrazole or 1,2,4-oxadiazole, as indicated below) is also shown with its Gamma Amino Butyric Acid (GABA) Receptor activity. […] As a result, the compounds of the present invention in which R^4 is a heteroaryl, such as pyrazole or 1,2,4-oxadiazole, have the unexpected benefits of minimizing off target activity at the GABA receptor.
Note: % GABA is defined as the GABA activity of the indicated compound expressed as a percentage of the activity of control compound P18. NA=data not available.

[2] = target: T1, recombinant human CB1 receptor (Homo sapiens, UniProt P21554); assay: Cannabinoid Receptor-1 (CB1) Binding Assay ([3H]CP-55940 displacement); settings: recombinant human CB1 receptor expressed in CHO cells, 0.6 nM [3H]CP-55940; read-out: CB1 binding IC50
T1 construct: expressed in transfected cells
Experimental: Binding affinity determination is based on recombinant human CB1 receptor expressed in Chinese Hamster Ovary (CHO) cells (Felder et al, Mol. Pharmacol. 48: 443-450, 1995). Total assay volume is 250 μl (240 μl CB1 receptor membrane solution plus 5 μl test compound solution plus 5 μl [3H]CP-55940 solution). Final concentration of [3H]CP-55940 is 0.6 nM. Binding buffer contains 50 mM Tris-HCl, pH 7.4, 2.5 mM EDTA, 5 mM MgCl2, 0.5 mg/mL fatty acid free bovine serum albumin and protease inhibitors (Cat#P8340, from Sigma). To initiate the binding reaction, 5 μl of radioligand solution is added, the mixture is incubated with gentle shaking on a shaker for 1.5 h at 30° C. The binding is terminated by using 96-well harvester and filtering through GF/C filter presoaked in 0.05% polyethylenimine. The bound radiolabel is quantitated using scintillation counter. Apparent binding affinities for various compounds are calculated from IC50 values (DeBlasi et al., Trends Pharmacol Sci 10: 227-229, 1989).

[3] = target: T1, recombinant human CB1 receptor; assay: Cannabinoid Receptor-1 (CB1) Functional Activity Assay (intracellular cAMP in CB1-CHO cells); assay type: cell-based; settings: for EC50: CB1-CHO cells, forskolin-stimulated cAMP, read-out: EC50 in the CB1 functional activity assay; for functional mode at CB1 receptor: CB1 functional activity assay, cAMP
Experimental: The functional activation of CB1 receptor is based on recombinant human CB1 receptor expressed in CHO cells (Felder et al, Mol. Pharmacol. 48: 443-450, 1995). To determine the agonist activity or inverse agonist activity of any test compound, 50 ul of CB1-CHO cell suspension are mixed with test compound and 70 ul assay buffer containing 0.34 mM 3-isobutyl-1-methylxanthine and 5.1 uM of forskolin in 96-well plates. The assay buffer is comprised of Earle's Balanced Salt Solution supplemented with 5 mM MgCl2 1 mM glutamine, 10 mM HEPES, and 1 mg/mL bovine serum albumin. The mixture is incubated at room temperature for 30 minutes, and terminated by adding 30 ul/well of 0.5M HCl. The total intracellular cAMP level is quantitated using the New England Nuclear Flashplate and cAMP radioimmunoassay kit.
To determine the antagonist activity of test compound, the reaction mixture also contains 0.5 nM of the agonist CP55940 (or 50 nM of methanandamide), and the reversal of the CP55940 (or methanandamide) effect is quantitated with increasing concentration of the test compound. Intracellular cAMP is determined as described above. An IC50 value for the test compound is calculated from the titration curve.

T1 sequence (P21554 whole entry): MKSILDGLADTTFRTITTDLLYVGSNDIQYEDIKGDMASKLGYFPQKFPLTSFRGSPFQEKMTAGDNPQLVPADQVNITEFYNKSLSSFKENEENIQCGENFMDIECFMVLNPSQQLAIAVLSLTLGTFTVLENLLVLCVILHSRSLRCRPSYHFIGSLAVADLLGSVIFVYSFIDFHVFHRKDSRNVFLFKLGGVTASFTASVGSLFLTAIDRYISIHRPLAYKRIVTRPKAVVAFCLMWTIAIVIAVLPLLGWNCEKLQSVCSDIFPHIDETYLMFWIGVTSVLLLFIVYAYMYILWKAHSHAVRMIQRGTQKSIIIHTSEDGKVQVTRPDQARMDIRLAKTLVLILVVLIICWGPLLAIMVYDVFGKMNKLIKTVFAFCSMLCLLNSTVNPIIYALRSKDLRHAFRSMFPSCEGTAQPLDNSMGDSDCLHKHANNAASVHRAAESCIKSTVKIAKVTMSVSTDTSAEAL

Row | % GABA Example [1] | % GABA Parent [1] | SMILES | other results
1 | 38% | – | CC(=O)Nc1c(C(=O)C(C)(C)O)oc2nc(-c3ccc(-c4cn[nH]c4)cc3Cl)c(-c3ccc(Cl)cc3)cc12 [Example 1, N-[5-(4-Chlorophenyl)-6-[2-chloro-4-(1H-pyrazol-4-yl)phenyl]-2-(2-hydroxy-2-methylpropanoyl)furo[2,3-b]pyridin-3-yl]acetamide] | IC50 [2]: 2 nM; EC50 [3]: < 20 nM; functional mode at CB1 receptor [3]: functional inverse agonists
2 | 17% | – | CC(=O)Nc1c(C(=O)C(C)C)oc2nc(-c3ccc(-c4cc[nH]n4)cc3Cl)c(-c3ccc(Cl)cc3)cc12 [Example 2, N-{5-(4-Chlorophenyl)-6-[2-chloro-4-(1H-pyrazol-3-yl)phenyl]-2-isobutyrylfuro[2,3-b]pyridin-3-yl}acetamide] | IC50 [2]: 6 nM; EC50 [3]: < 20 nM; functional mode at CB1 receptor [3]: functional inverse agonists
3 | 29% | – | CC(C)(C)C(=O)c1oc2nc(-c3ccc(-c4cn[nH]c4)cc3Cl)c(-c3ccc(Cl)cc3)cc2c1NC(=O)CO [Example 32, N-[5-(4-Chlorophenyl)-6-[2-chloro-4-(1H-pyrazol-4-yl)phenyl]-2-(2,2-dimethylpropanoyl)furo[2,3-b]pyridin-3-yl]-2-hydroxyacetamide] | –
4 | 34% | – | CC(=O)Nc1c(C(=O)C(C)C)oc2nc(-c3ccc(-c4c[nH]nc4C)cc3Cl)c(-c3ccc(Cl)cc3)cc12 [Example 33, N-[6-[2-Chloro-4-(3-methyl-1H-pyrazol-4-yl)phenyl]-5-(4-chlorophenyl)-2-isobutyrylfuro[2,3-b]pyridin-3-yl]acetamide] | –
5 | 29% | – | Cc1n[nH]cc1-c1ccc(-c2nc3oc(C(=O)C(C)(C)O)c(C)c3cc2-c2ccc(Cl)cc2)c(Cl)c1 [Example 34, 1-[6-[2-Chloro-4-(3-methyl-1H-pyrazol-4-yl)phenyl]-5-(4-chlorophenyl)-3-methylfuro[2,3-b]pyridin-2-yl]-2-hydroxy-2-methylpropan-1-one] | –
6 | 59% | – | CCc1c(C(=O)C(C)(C)O)oc2nc(-c3ccc(-c4c[nH]nc4C)cc3Cl)c(-c3ccc(Cl)cc3)cc12 [Example 35, 1-[6-[2-Chloro-4-(3-methyl-1H-pyrazol-4-yl)phenyl]-5-(4-chlorophenyl)-3-ethylfuro[2,3-b]pyridin-2-yl]-2-hydroxy-2-methylpropan-1-one] | –
7 | 16% | – | Cc1n[nH]cc1-c1ccc(-c2nc3oc(C(=O)C(C)(C)C)c(C)c3cc2-c2ccc(Cl)cc2)c(Cl)c1 [Example 36, 1-[6-[2-Chloro-4-(3-methyl-1H-pyrazol-4-yl)phenyl]-5-(4-chlorophenyl)-3-methylfuro[2,3-b]pyridin-2-yl]-2,2-dimethylpropan-1-one] | –
8 | 29% | – | Cc1n[nH]cc1-c1ccc(-c2nc3oc(C(=O)C(C)C)c(N4CCCC4=O)c3cc2-c2ccc(Cl)cc2)c(Cl)c1 [Example 39, 1-[6-[2-Chloro-4-(3-methyl-1H-pyrazol-4-yl)phenyl]-5-(4-chlorophenyl)-2-isobutyrylfuro[2,3-b]pyridin-3-yl]pyrrolidin-2-one] | –
9 | 5% | – | Cc1c(C(=O)C(C)(C)C)oc2nc(-c3ccc(-c4ncon4)cc3Cl)c(-c3ccc(Cl)cc3)cc12 [Example 42, 1-[6-[2-Chloro-4-(1,2,4-oxadiazol-3-yl)phenyl]-5-(4-chlorophenyl)-3-methylfuro[2,3-b]pyridin-2-yl]-2,2-dimethylpropan-1-one] | –
10 | – | 99% | CC(=O)Nc1c(C(=O)C(C)(C)O)oc2nc(-c3ccccc3Cl)c(-c3ccc(Cl)cc3)cc12 [Example P1, reference compound] | –
11 | – | 107% | CC(=O)Nc1c(C(=O)C(C)C)oc2nc(-c3ccccc3Cl)c(-c3ccc(Cl)cc3)cc12 [Example P2, reference compound] | –
12 | – | 67% | CC(=O)Nc1c(C(=O)C(C)(C)C)oc2nc(-c3ccccc3Cl)c(-c3ccc(Cl)cc3)cc12 [Example P3, reference compound] | –
13 | – | 76% | CCC(=O)c1oc2nc(-c3ccccc3Cl)c(-c3ccc(Cl)cc3)cc2c1NC(C)=O [Example P4, reference compound] | –
14 | – | 75% | Cc1c(C(=O)C(C)(C)O)oc2nc(-c3ccccc3Cl)c(-c3ccc(Cl)cc3)cc12 [Example P7, reference compound] | –
15 | – | 25% | Cc1c(C(=O)C(C)(C)C)oc2nc(-c3ccccc3Cl)c(-c3ccc(Cl)cc3)cc12 [Example P8, reference compound] | –
16 | – | 29% | Cc1c(S(=O)(=O)C(C)(C)C)oc2nc(-c3ccccc3Cl)c(-c3ccc(Cl)cc3)cc12 [Example P9, reference compound] | –
17 | – | 94% | C[C@H](O)C(=O)Nc1c(C(=O)C(C)(C)C)oc2nc(-c3ccccc3Cl)c(-c3ccc(Cl)cc3)cc12 [Example P11, reference compound] | –
18 | – | 40% | CC(C)(C)C(=O)c1oc2nc(-c3ccccc3Cl)c(-c3ccc(Cl)cc3)cc2c1C(N)=O [Example P12, reference compound] | –
19 | – | 91% | CC(C)(O)C(=O)c1oc2nc(-c3ccccc3Cl)c(-c3ccc(Cl)cc3)cc2c1N [Example P13, reference compound] | –
20 | – | 50% | CCC(=O)c1oc2nc(-c3ccccc3Cl)c(-c3ccc(Cl)cc3)cc2c1C [Example P15, reference compound] | –
21 | – | 90% | CC(C)(C)C(=O)c1oc2nc(-c3ccccc3Cl)c(-c3ccc(Cl)cc3)cc2c1NC(=O)CO [Example P16, reference compound] | –
22 | – | 100% | CC(C)C(=O)c1oc2nc(-c3ccccc3Cl)c(-c3ccc(Cl)cc3)cc2c1N1CCCC1=O [Example P17, reference compound] | –
23 | – | 96% | CCc1c(C(=O)C(C)(C)O)oc2nc(-c3ccccc3Cl)c(-c3ccc(Cl)cc3)cc12 [Example P19, reference compound] | –
24 | – | 50% | CC(C)(C)C(=O)c1oc2nc(-c3ccccc3Cl)c(-c3ccc(Cl)cc3)cc2c1CO [Example P20, reference compound] | –
25 | – | 62% | CC(=O)c1c(C(=O)C(C)(C)C)oc2nc(-c3ccccc3Cl)c(-c3ccc(Cl)cc3)cc12 [Example P21, reference compound] | –

Row | SMILES | % GABA Example [1] | % GABA Parent [1] | other results
26 | CC(C)(C)C(=O)c1oc2nc(-c3ccccc3Cl)c(-c3ccc(Cl)cc3)cc2c1N [Example P5, reference compound] | – | 33% | –
27 | Cc1c(C(=O)CC(C)C)oc2nc(-c3ccccc3Cl)c(-c3ccc(Cl)cc3)cc12 [Example P10, reference compound] | – | 59% | –
28 | Cc1c(C(=O)C(C)C)oc2nc(-c3ccccc3Cl)c(-c3ccc(Cl)cc3)cc12 [Example P14, reference compound] | – | 51% | –
29 | CC(C)(O)C(=O)c1oc2nc(-c3ccccc3Cl)c(-c3ccc(Cl)cc3)cc2c1NC(=O)CO [Example P18, reference compound] | – | 100% | –
